Data as given in patent US20180228743A1, “COMPOUNDS AND METHODS OF PROMOTING MYELINATION” (Case Western Reserve University, priority 2016, published 2018).
Counter-ions that a name gives are not always drawn. Like-named read-outs stand apart in the source and are kept apart here.

Key:
rat CYP51 = molecular target: T1, rat CYP51 (Rattus norvegicus, UniProt Q64654); test: CYP51 enzymatic assay (LC/MS quantitation of FF-MAS); type: biochemical
T1 construct: purchased Cypex, Inc
T1 sequence (Q64654 1-503): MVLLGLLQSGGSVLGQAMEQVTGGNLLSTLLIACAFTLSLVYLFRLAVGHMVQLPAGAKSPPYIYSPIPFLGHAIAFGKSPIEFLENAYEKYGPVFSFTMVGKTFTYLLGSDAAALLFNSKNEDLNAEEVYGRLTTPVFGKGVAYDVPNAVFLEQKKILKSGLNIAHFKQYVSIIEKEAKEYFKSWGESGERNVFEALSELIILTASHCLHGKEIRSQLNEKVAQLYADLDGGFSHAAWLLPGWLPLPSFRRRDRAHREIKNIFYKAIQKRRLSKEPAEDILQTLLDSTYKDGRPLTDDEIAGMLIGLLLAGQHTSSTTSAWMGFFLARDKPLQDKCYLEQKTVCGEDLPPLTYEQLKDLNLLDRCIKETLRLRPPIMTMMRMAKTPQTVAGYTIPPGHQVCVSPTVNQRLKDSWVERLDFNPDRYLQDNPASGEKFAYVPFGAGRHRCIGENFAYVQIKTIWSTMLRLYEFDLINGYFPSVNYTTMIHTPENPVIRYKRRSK
Method: Finally, 15 μl of each reaction/isopropanol mixture was injected onto a SCIEX Triple Quad 6500 LC-MS/MS system using an APCI ion source in positive ion mode with a Shimadzu UFLC-20AD HPLC and a Phenomenex

EpiSC-derived OPCs [1] = test: In vitro phenotypic screening of OPCs (MBP+ oligodendrocytes at 72 h); type: cell-based, mouse; conditions: 72 h
EpiSC-derived OPCs [2] = test: High-throughput screening of 3,000 bioactive small molecules for MBP+ oligodendrocyte formation from OPCs; type: cell-based, mouse; conditions: 72 h; for % 0ligos: MBP+ oligodendrocytes; for fold induction at 2 µM: Mus musculus, read-out: fold-change in % MBP + oligodendrocytes
Source text: Plates were imaged on the Operetta High Content Imaging and Analysis system (PerkinElmer) and a set of 6 fields captured from each well resulting in an average of 1200 cells being scored per well. Analysis (PerkinElmer Harmony and Columbus software) began by identifying intact nuclei stained by DAPI; that is, those traced nuclei that were larger than 300 μm^2 in surface area. Each traced nucleus region was then expanded by 50% and cross-referenced with the […] (MBP) stain to identify oligodendrocyte nuclei, and from this the percentage of oligodendrocytes was calculated. In some experiments, the total process length of MBP+ oligodendrocytes was calculated as previously described.
EpiSC-derived OPCs were grown and expanded in poly-ornithine and laminin-coated flasks before harvesting for plating. Cells were dispensed in differentiation media supplemented with Noggin (R&D Systems; 100 ng/ml), Neurotrophin 3 (R&D Systems; 10 ng/ml), cAMP (Sigma; 50 μM), and IGF-1 (R&D Systems; 100 ng/ml)) using a Biotek EL406 Microplate Washer Dispenser (Biotek) equipped with 5 μL dispense cassette (Biotek), into poly-D-lysine/laminin (Sigma, L2020; 4 μg/ml)-coated sterile, 384-well, CellCarrier ultra plates (PerkinElmer), to a final density of 12,500 cells per well and allowed to attach for 45 min before addition of drug. A 3 mM stock of bioactive compound library in dimethylsulphoxide (DMSO) were prepared in an Abgene storage 384-well plate (ThermoFisher Scientific; AB1055). These were added to assay plates using a 50 nL solid pin tool attached to Janus automated workstation (Perkin Elmer), resulting in a final screening concentration of 2 μM. Cells were incubated at 37° C. for 1 hour and then T3 (Sigma; 40 ng/ml) was added to all wells except negative controls, to which FGF (20 ng/ml) was added instead. Negative controls and T3-alone were included in each assay plate. After incubation at 37° C. for 72 h, cells were fixed, washed and stained similar to 96-well OPC assay protocol, although all the washing steps were performed using a Biotek EL406 Microplate Washer Dispenser (Biotek) equipped with a 96-well aspiration manifold. Cells were stained with DAPI (Sigma; 1 μg/ml) and MBP antibody (Abcam, ab7349; 1:100). Plates were imaged on the Operetta High Content Imaging and Analysis system (PerkinElmer) and a set of 4 fields captured from each well resulting in an average of 700 cells being scored per well. Analysis was performed as in High-Content Imaging and Analysis, above. All plates for the primary screen were processed and analyzed simultaneously to minimize variability. Molecules causing more than 20% reduction in nuclear count relative to DMSO control wells were removed from consideration, and hits were called on the basis of largest fold-increase in percentage of MBP+ oligodendrocytes relative to DMSO controls within the same plate.

OPCs = test: GC/MS-based sterol profiling in OPCs; type: cell-based, mouse; conditions: for sterol levels / sterol intermediate accumulation in OPCs: 24 h treatment (siRNA 96 h)
[3] = 2 μM, relative to DMSO controls of the same plate
[4] = 2 μM, hydrochloride monohydrate

Row | Compound | cell viability (% relative to DMS0) (EpiSC-derived OPCs [2]; 2 μM) [%] | % 0ligos (EpiSC-derived OPCs [2]; 2 μM) [%] | fold induction at 2 µM (EpiSC-derived OPCs [2]; [3]) | further results
1 | CC(=O)N1CCN(c2ccc(OC[C@@H]3CO[C@](Cn4ccnc4)(c4ccc(Cl)cc4Cl)O3)cc2)CC1 (stereo in doubt) [R-trans-Ketoconazole] |  |  |  | inhibition of mammalian CYP51 in vitro (rat CYP51): strikingly less effective at inhibiting mammalian CYP51
2 | CC(=O)N1CCN(c2ccc(OC[C@H]3CO[C@@](Cn4ccnc4)(c4ccc(Cl)cc4Cl)O3)cc2)CC1 (stereo in doubt) [S-trans-Ketoconazole] |  |  |  | inhibition of mammalian CYP51 in vitro (rat CYP51): strikingly less effective at inhibiting mammalian CYP51
3 | CC(C)CCC[C@@H](C)[C@H]1CC=C2C3=C(CC[C@@]21C)[C@@]1(C)CCC(O)CC1CC3 (stereo partly drawn) [14-dehydrozymostenol, cholesta-8,14-dien-3-ol] |  |  |  | formation of MBP+ oligodendrocytes from OPCs (EpiSC-derived OPCs [1]): enhanced the formation of MBP+ oligodendrocytes
4 | c1ccc(-c2ccc(C(c3ccccc3)n3ccnc3)cc2)cc1 (stereo not drawn) [Bifonazole] | 123.69 | 40.98 | 4.59 | 
5 | Clc1ccc(CCC(Cn2ccnc2)Sc2c(Cl)cccc2Cl)cc1 (stereo not drawn) [Butoconazole nitrate] | 122.03 | 46.85 | 5.25 | 
6 | CN1CCC[C@@H]1CCO[C@](C)(c1ccccc1)c1ccc(Cl)cc1 [Clemastine fumarate] |  | 20.49 |  | oligodendrocyte formation in combination with ketoconazole (EpiSC-derived OPCs [1]; ketoconazole 2.5 μM (maximally effective dose)): did not enhance differentiation above levels seen for ketoconazole alone; sterol levels / sterol intermediate accumulation in OPCs (OPCs): induced accumulation of zymostenol and zymosterol and decreased basal sterol levels
7 | Clc1ccc(C(Cn2ccnc2)OCc2ccc(Sc3ccccc3)cc2)c(Cl)c1 (stereo not drawn) [Fenticonazole Nitrate] | 103.63 | 35.66 | 4 | 
8 | C[C@]12CC[C@@H]3c4ccc(O)cc4C[C@@H](CCCCCCCCC[S+]([O-])CCCC(F)(F)C(F)(F)F)[C@H]3[C@@H]1CC[C@@H]2O (stereo partly drawn) [Fulvestrant] | 139.42 | 18.21 | 3.83 | enzyme inhibited in OPCs as indicated by sterol profile (OPCs; 24 h): targeted CYP51
9 | Cl.O[Si](CCCN1CCCCC1)(c1ccc(F)cc1)C1CCCCC1 (stereo not drawn) [Hexahydro-sila-difenidol hydrochloride, p-fluoro analog] |  | 26.76 |  | fold-change in % MBP + oligodendrocytes (EpiSC-derived OPCs [2]; [3]): 3.49
10 | Cl.Clc1ccc(N2CCN(Cc3c[nH]c4ncccc34)CC2)cc1 [L-745,870 hydrochloride] |  | 32.61 |  | 
11 | Cc1cc(Nc2cc(CN3CCOCC3)c3nc(C)c(Cc4ccc(Cl)cc4F)n3n2)n[nH]1 [LY2784544] | 87.93 | 28.75 | 3.62 | 
12 | FC(F)(F)c1ccc(/C=C/c2nc(COc3ccc(CCCCn4ccnn4)cc3)co2)cc1 [Mubritinib (TAK 165), Mubritinib] | 142.71 | 31.45 | 3.95 | 
13 | N=C(N)c1ccc(OCCCCCOc2ccc(C(=N)N)cc2)cc1 [Pentamidine isethionate] | 108.75 | 41.29 | 4.42 | 
14 | CCCCOc1ccc(OCCCN2CCOCC2)cc1 [Pramoxine HCl] | 113.08 | 32.98 | 3.89 | 
15 | O=C(C1CCCCC1)N1CC(=O)N2CCc3ccccc3C2C1 (stereo not drawn) [Praziquantel] | 109.81 | 33.24 | 3.72 | 
16 | CCc1nc(N)nc(N)c1-c1ccc(Cl)cc1 [Pyrimethamine] | 91.11 | 43.87 | 4.92 | 
17 | O=C(c1ccc(OCCN2CCCCC2)cc1)c1c(-c2ccc(O)cc2)sc2cc(O)ccc12 [Raloxifene HCl] |  |  | 4.8 | cell viability (% relative to DMS0) (EpiSC-derived OPCs [2]; 2 μM, HCl): 114.37%; cell viability (% relative to DMS0) (EpiSC-derived OPCs [2]; 2 μM, listed as Raloxifene hydrochloride, HCl): 126.07%

Row | Compound | cell viability (% relative to DMS0) (EpiSC-derived OPCs [2]; 2 μM) [%] | % 0ligos (EpiSC-derived OPCs [2]; 2 μM) [%] | fold induction at 2 µM (EpiSC-derived OPCs [2]; [3]) | further results
18 | Cc1nnc(C(=O)NC(C)(C)c2nc(C(=O)NCc3ccc(F)cc3)c(O)c(=O)n2C)o1 [Raltegravir (MK-0518), Raltegravir] | 115.85 | 38.02 |  | fold induction at 2 µM (EpiSC-derived OPCs [2]): 4.26
19 | Cc1cc(NC(=O)Nc2ccc(N(C)C)cc2)c2cc(F)cc(F)c2n1 [SB408124] | 106.19 | 39.63 |  | fold-change in % MBP + oligodendrocytes (EpiSC-derived OPCs [2]; [3]): 4.44
20 | Clc1ccc(C(Cn2ccnc2)OCc2csc3c(Cl)cccc23)c(Cl)c1 (stereo not drawn) [Sertaconazole nitrate] | 134.49 | 39.38 | 5.23 | 
21 | Clc1ccc(CSC(Cn2ccnc2)c2ccc(Cl)cc2Cl)cc1 (stereo not drawn) [Sulconazole Nitrate] | 104.84 | 37.57 | 4.44 | 
22 | CCN(CC)CCCCCCCCOC(=O)c1cc(OC)c(OC)c(OC)c1.Cl [TMB-8 hydrochloride] | 139.42 | 18.47 |  | fold-change in % MBP + oligodendrocytes (EpiSC-derived OPCs [2]; [3]): 3.89
23 | O=C1Cc2cc(CCN3CCN(c4nsc5ccccc45)CC3)c(Cl)cc2N1 [Ziprasidone HCl] |  |  | 4.68 | % 0ligos (EpiSC-derived OPCs [2]; 2 μM, HCl): 34.10%; cell viability (% relative to DMS0) (EpiSC-derived OPCs [2]; 2 μM, HCl): 147.64%
24 | O=C1Cc2cc(CCN3CCN(c4nsc5ccccc45)CC3)c(Cl)cc2N1 [Ziprasidone hydrochloride monohydrate] |  |  |  | % 0ligos (EpiSC-derived OPCs [2]; [4]): 32.78%; fold-change in % MBP + oligodendrocytes (EpiSC-derived OPCs [2]; 2 μM, relative to DMSO controls of the same plate, hydrochloride monohydrate): 3.71; cell viability (% relative to DMS0) (EpiSC-derived OPCs [2]; [4]): 116.11%
25 | C=C(c1ccc(C(=O)O)cc1)c1cc2c(cc1C)C(C)(C)CCC2(C)C [bexarotene, Bexarotene] |  |  |  | sterol levels / sterol intermediate accumulation in OPCs (OPCs): minimal effects on sterol levels
26 | CC(C)CCC[C@@H](C)[C@H]1CC[C@H]2[C@@H]3CC=C4C[C@@H](O)CC[C@]4(C)[C@H]3CC[C@]12C [cholesterol, Cholesterol] |  |  |  | formation of MBP+ oligodendrocytes from OPCs (EpiSC-derived OPCs [1]): ineffective
27 | OC(Cn1cncn1)(Cn1cncn1)c1ccc(F)cc1F [fluconazole, Fluconazole] |  |  |  | inhibition of mammalian CYP51 in vitro (rat CYP51): did not inhibit mammalian CYP51 in vitro
28 | CC(C)=CCC[C@@H](C)[C@H]1CC[C@@]2(C)C3=C(CC[C@]12C)[C@@]1(C)CC[C@H](O)C(C)(C)[C@@H]1CC3 [lanosterol, Lanosterol] |  |  |  | formation of MBP+ oligodendrocytes from OPCs (EpiSC-derived OPCs [1]): enhanced formation of MBP+ oligodendrocytes in a dose-responsive fashion
29 | N[C@@H](Cc1cc(I)c(Oc2ccc(O)c(I)c2)c(I)c1)C(=O)O [liothyronine, Liothyronine] |  |  |  | sterol levels / sterol intermediate accumulation in OPCs (OPCs): minimal effects on sterol levels
30 | CC(C)CCC[C@@H](C)[C@H]1CC[C@H]2C3=C(CC[C@]12C)[C@@]1(C)CC[C@H](O)C[C@@H]1CC3 [zymostenol, Zymostenol] |  |  |  | formation of MBP+ oligodendrocytes from OPCs (EpiSC-derived OPCs [1]): enhanced the formation of MBP+ oligodendrocytes
31 | (±)-Vesamicol | 112.02 | 34.23 |  | fold-change in % MBP + oligodendrocytes (EpiSC-derived OPCs [2]; [3]): 3.87
32 | Varenicline tartrate | 144.02 | 22.86 |  | fold-change in % MBP + oligodendrocytes (EpiSC-derived OPCs [2]; [3]): 4.81
33 | lsoconazole nitrate |  | 53.25 |  | fold-change in % MBP + oligodendrocytes (EpiSC-derived OPCs [2]; [3]): 6.70
